# Results published in ChEMBL document CHEMBL3286225, “Novel carboline derivatives as potent antifungal lead compounds: design, synthesis, and biological evaluation” (ACS Med Chem Lett, 2014).
# Tests used:
# Format in all cases: functional
# Nannizzia gypsea = assay: Antifungal activity against Microsporum gypseum Cmccfmza after 7 days by serial dilution method; settings: 168 h
# Aspergillus fumigatus = assay: Antifungal activity against Aspergillus fumigatus 07544 after 7 days by serial dilution method; settings: Aspergillus fumigatus, 07544, 168 h
# Candida albicans = assay: Antifungal activity against fluconazole-sensitive Candida albicans SC5314 after 24 hrs by serial dilution method; settings: SC5314, 24 h
# Nakaseomyces glabratus = assay: Antifungal activity against Candida glabrata 537 after 24 hrs by serial dilution method; settings: Nakaseomyces glabratus, 537, 24 h
# Cryptococcus neoformans = assay: Antifungal activity against Cryptococcus neoformans 32609 after 72 hrs by serial dilution method; settings: Cryptococcus neoformans, 32609, 72 h
# Candida parapsilosis = assay: Antifungal activity against Candida parapsilosis ATCC 22019 after 24 hrs by serial dilution method; settings: Lodderomyces parapsilosis, ATCC 22019, 24 h
# Trichophyton rubrum = assay: Antifungal activity against Trichophyton rubrum Cmccftla after 7 days by serial dilution method; settings: 168 h
# Pichia kudriavzevii = assay: Antifungal activity against Candida krusei 0710397 after 7 days by serial dilution method; settings: Pichia kudriavzevii, 0710397, 168 h
# Candida tropicalis = assay: Antifungal activity against Candida tropicalis after 7 days by serial dilution method; settings: 168 h
SMILES,MIC80 (Nannizzia gypsea),MIC80 (Aspergillus fumigatus),MIC80 (Candida albicans),MIC80 (Nakaseomyces glabratus),MIC80 (Cryptococcus neoformans),MIC80 (Candida parapsilosis),MIC80 (Trichophyton rubrum),MIC80 (Pichia kudriavzevii),MIC80 (Candida tropicalis)
CN1CCc2c(c3cc(Cl)ccc3n2Cc2cccc(Cl)c2)C1,16 µg/mL,32 µg/mL,64 µg/mL,16 µg/mL,16 µg/mL,32 µg/mL,8 µg/mL,,
COc1ccc(OCCCn2c3c(c4cc(F)ccc42)CNCC3)cc1,4 µg/mL,,8 µg/mL,,8 µg/mL,> 64 µg/mL,8 µg/mL,16 µg/mL,> 64 µg/mL
Fc1ccc(NCCCn2c3c(c4cc(F)ccc42)CNCC3)cc1,16 µg/mL,,8 µg/mL,,32 µg/mL,16 µg/mL,32 µg/mL,16 µg/mL,64 µg/mL
CN1CCc2c(c3cc(Cl)ccc3n2C(=O)c2cccc(Cl)c2)C1,> 64 µg/mL,> 64 µg/mL,> 64 µg/mL,32 µg/mL,32 µg/mL,64 µg/mL,> 64 µg/mL,,
Cc1ccc(OCCCn2c3c(c4cc(F)ccc42)CNCC3)cc1,4 µg/mL,,8 µg/mL,,4 µg/mL,4 µg/mL,2 µg/mL,4 µg/mL,16 µg/mL
CCN1CCc2c(c3cc(Cl)ccc3n2CCCOc2ccc(Cl)cc2)C1,32 µg/mL,> 64 µg/mL,64 µg/mL,32 µg/mL,16 µg/mL,64 µg/mL,> 64 µg/mL,,
CN1CCc2c(c3cc(Cl)ccc3n2CC(O)c2ccccc2)C1 (stereo not drawn),32 µg/mL,> 64 µg/mL,> 64 µg/mL,32 µg/mL,32 µg/mL,64 µg/mL,> 64 µg/mL,,
CC(C)(C)c1ccc(OCCCn2c3c(c4cc(F)ccc42)CNCC3)cc1,4 µg/mL,,8 µg/mL,,8 µg/mL,4 µg/mL,4 µg/mL,16 µg/mL,4 µg/mL
CN1CCc2c(c3cc(Cl)cc(Cl)c3n2CCCOc2ccc(Cl)cc2)C1,16 µg/mL,> 64 µg/mL,> 64 µg/mL,> 64 µg/mL,16 µg/mL,> 64 µg/mL,> 64 µg/mL,,
Fc1ccc(OCCCn2c3c(c4cc(Br)ccc42)CNCC3)cc1,4 µg/mL,,4 µg/mL,,4 µg/mL,4 µg/mL,8 µg/mL,4 µg/mL,16 µg/mL
CN1CCc2c(c3cc(Cl)ccc3n2C(=O)Cc2ccccc2)C1,> 64 µg/mL,> 64 µg/mL,> 64 µg/mL,> 64 µg/mL,> 64 µg/mL,> 64 µg/mL,> 64 µg/mL,,
Fc1ccc(OCCCn2c3c(c4cc(Cl)ccc42)CNCC3)cc1,4 µg/mL,,4 µg/mL,,4 µg/mL,4 µg/mL,8 µg/mL,4 µg/mL,4 µg/mL
Fc1ccc(OCCCCn2c3c(c4cc(F)ccc42)CNCC3)cc1,8 µg/mL,,16 µg/mL,,16 µg/mL,16 µg/mL,16 µg/mL,4 µg/mL,16 µg/mL
Fc1ccc(OCCCCCn2c3c(c4cc(F)ccc42)CNCC3)cc1,8 µg/mL,,16 µg/mL,,16 µg/mL,16 µg/mL,32 µg/mL,4 µg/mL,4 µg/mL
Clc1ccc2c(c1)c1c(n2CCCOc2cccc(Br)c2)CCNC1,16 µg/mL,,8 µg/mL,,4 µg/mL,16 µg/mL,16 µg/mL,4 µg/mL,16 µg/mL
Cc1ccc2c(c1)c1c(n2CCCOc2ccc(F)cc2)CCNC1,4 µg/mL,,4 µg/mL,,16 µg/mL,16 µg/mL,4 µg/mL,16 µg/mL,64 µg/mL
Cc1ccc2c(c1)c1c(n2CCCOc2cccc(Br)c2)CCNC1,16 µg/mL,,16 µg/mL,,16 µg/mL,16 µg/mL,16 µg/mL,4 µg/mL,16 µg/mL
Fc1ccc2c(c1)c1c(n2CCCOc2ccccc2)CCNC1,4 µg/mL,,8 µg/mL,,8 µg/mL,> 64 µg/mL,8 µg/mL,16 µg/mL,64 µg/mL
Fc1ccc2c(c1)c1c(n2CCCOc2ccc(Br)cc2)CCNC1,2 µg/mL,,8 µg/mL,,4 µg/mL,64 µg/mL,8 µg/mL,4 µg/mL,16 µg/mL

# Now from value to molecule:
MIC80 (Nannizzia gypsea),MIC80 (Aspergillus fumigatus),MIC80 (Candida albicans),MIC80 (Nakaseomyces glabratus),MIC80 (Cryptococcus neoformans),MIC80 (Candida parapsilosis),MIC80 (Trichophyton rubrum),MIC80 (Pichia kudriavzevii),MIC80 (Candida tropicalis),SMILES
16 µg/mL,,32 µg/mL,,32 µg/mL,4 µg/mL,32 µg/mL,4 µg/mL,16 µg/mL,Fc1ccc2c(c1)c1c(n2CCCOc2cccc(F)c2F)CCNC1
4 µg/mL,,4 µg/mL,,4 µg/mL,16 µg/mL,4 µg/mL,16 µg/mL,64 µg/mL,Cc1ccccc1OCCCn1c2c(c3cc(F)ccc31)CNCC2
2 µg/mL,,4 µg/mL,,16 µg/mL,64 µg/mL,8 µg/mL,4 µg/mL,16 µg/mL,Fc1ccc(F)c(OCCCn2c3c(c4cc(F)ccc42)CNCC3)c1
4 µg/mL,,8 µg/mL,,4 µg/mL,4 µg/mL,4 µg/mL,4 µg/mL,16 µg/mL,Fc1cc(F)c(OCCCn2c3c(c4cc(F)ccc42)CNCC3)c(F)c1
1 µg/mL,,4 µg/mL,,8 µg/mL,64 µg/mL,2 µg/mL,4 µg/mL,16 µg/mL,Fc1ccc2c(c1)c1c(n2CCCOc2c(F)cccc2F)CCNC1
8 µg/mL,,8 µg/mL,,8 µg/mL,16 µg/mL,8 µg/mL,4 µg/mL,16 µg/mL,Fc1ccc(OCCCn2c3c(c4cc(F)ccc42)CNCC3)cc1
2 µg/mL,,2 µg/mL,,4 µg/mL,4 µg/mL,4 µg/mL,4 µg/mL,16 µg/mL,Fc1ccc2c(c1)c1c(n2CCCOc2cccc(Br)c2)CCNC1
4 µg/mL,,8 µg/mL,,4 µg/mL,64 µg/mL,8 µg/mL,4 µg/mL,4 µg/mL,Fc1ccc2c(c1)c1c(n2CCCOc2ccc(F)c(F)c2F)CCNC1
4 µg/mL,,8 µg/mL,,8 µg/mL,4 µg/mL,4 µg/mL,16 µg/mL,16 µg/mL,Cc1cccc(OCCCn2c3c(c4cc(F)ccc42)CNCC3)c1
16 µg/mL,,32 µg/mL,,16 µg/mL,64 µg/mL,32 µg/mL,64 µg/mL,64 µg/mL,Fc1ccc2c(c1)c1c(n2CCCOc2ccccc2Cl)CCNC1
